In US20120270884A1, “Methods of Treating Aneurysmal Dilatation, Blood Vessel Wall Weakness and Specifically Abdominal Aortic and Thoracic Aneurysm Using Matrix Metalloprotease-2 Inhibitors” (SYMPHONY EVOLUTION, INC., priority 2009, published 2012):

Legend:
Format in all cases: biochemical
[1] = target: T1, MMP-1 (Fibroblast collagenase) (Homo sapiens, UniProt P03956); assay: In vitro metalloprotease inhibition, MMP-1
T1 sequence (P03956 100-469): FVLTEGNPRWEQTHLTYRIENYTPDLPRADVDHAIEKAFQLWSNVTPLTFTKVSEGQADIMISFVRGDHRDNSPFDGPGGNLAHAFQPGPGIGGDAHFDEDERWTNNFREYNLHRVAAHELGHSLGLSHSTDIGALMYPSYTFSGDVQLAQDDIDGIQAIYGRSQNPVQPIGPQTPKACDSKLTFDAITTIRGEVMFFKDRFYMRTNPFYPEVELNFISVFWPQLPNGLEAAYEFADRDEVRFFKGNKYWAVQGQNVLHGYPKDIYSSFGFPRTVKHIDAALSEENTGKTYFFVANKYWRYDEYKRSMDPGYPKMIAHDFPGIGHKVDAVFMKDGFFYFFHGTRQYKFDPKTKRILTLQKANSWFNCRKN
Text: (§1) Blank cells indicate lack of data only.

[2] = target: T2, MMP-2 (72 kDa gelatinase, gelatinase A) (Homo sapiens, UniProt P08253); assay: In vitro metalloprotease inhibition, MMP-2
T2 sequence (P08253 110-660): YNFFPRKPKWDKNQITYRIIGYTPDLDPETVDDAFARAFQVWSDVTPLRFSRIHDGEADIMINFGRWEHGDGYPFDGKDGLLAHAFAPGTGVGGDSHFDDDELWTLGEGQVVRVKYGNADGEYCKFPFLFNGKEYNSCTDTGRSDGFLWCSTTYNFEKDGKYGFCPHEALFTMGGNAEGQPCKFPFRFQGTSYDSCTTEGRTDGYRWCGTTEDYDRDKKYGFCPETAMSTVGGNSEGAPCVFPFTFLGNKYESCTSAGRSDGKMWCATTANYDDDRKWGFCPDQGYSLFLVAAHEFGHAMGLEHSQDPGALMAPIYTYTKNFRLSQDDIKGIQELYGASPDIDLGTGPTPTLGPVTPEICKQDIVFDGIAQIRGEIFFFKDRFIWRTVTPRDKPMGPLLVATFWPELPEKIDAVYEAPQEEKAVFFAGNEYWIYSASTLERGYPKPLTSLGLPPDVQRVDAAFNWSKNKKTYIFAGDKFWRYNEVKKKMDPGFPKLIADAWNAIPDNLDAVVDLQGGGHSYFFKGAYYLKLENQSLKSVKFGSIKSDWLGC

[3] = target: MMP-3 (Stromelysin-1) (Homo sapiens, UniProt P08254); assay: In vitro metalloprotease inhibition, MMP-3
Text: as §1

[4] = target: MMP-13 (collagenase-3) (Homo sapiens, UniProt P45452); assay: In vitro metalloprotease inhibition, MMP-13

Sequence of MMP-3 (Stromelysin-1) (P08254 100-477, species assumed): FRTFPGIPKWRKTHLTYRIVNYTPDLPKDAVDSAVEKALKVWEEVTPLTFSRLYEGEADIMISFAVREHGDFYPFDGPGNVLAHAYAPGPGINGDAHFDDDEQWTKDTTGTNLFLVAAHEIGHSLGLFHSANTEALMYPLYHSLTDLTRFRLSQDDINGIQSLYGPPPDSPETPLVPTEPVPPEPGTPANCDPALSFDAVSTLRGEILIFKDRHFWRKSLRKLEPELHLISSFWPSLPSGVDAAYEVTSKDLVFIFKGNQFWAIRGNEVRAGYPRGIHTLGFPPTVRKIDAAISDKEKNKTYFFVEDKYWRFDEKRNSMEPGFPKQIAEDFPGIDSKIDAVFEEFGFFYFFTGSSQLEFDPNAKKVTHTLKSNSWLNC

IC50 [1] [nM]	IC50 [2] [nM]	IC50 [3] [nM]	IC50 [4] [nM]	Structure (SMILES)
< 50	< 50	< 50	< 50	COCCOC(=O)N1CCN(S(=O)(=O)c2ccc(Oc3ccc(F)cc3)cc2)[C@@H](C(=O)NO)C1 [Entry 1]
< 50	< 50	< 50	< 50	O=C(NO)[C@H]1CN(C(=O)N2CCOCC2)CCN1S(=O)(=O)c1ccc(Oc2ccc(F)cc2)cc1 [Entry 2]
50 to 1000	< 50	1000 to 20000	< 50	COCCOC(=O)N1CCN(S(=O)(=O)c2ccc(Oc3ccc(F)cc3)c(F)c2)[C@@H](C(=O)NO)C1 [Entry 3]
50 to 1000	< 50	< 50	< 50	COCCOC(=O)N1CCN(S(=O)(=O)c2ccc(Oc3ccc(Cl)cc3)c(F)c2)[C@@H](C(=O)NO)C1 [Entry 4]
50 to 1000	< 50	50 to 1000	< 50	COCCOC(=O)N1CCN(S(=O)(=O)c2ccc(Oc3ccc(C#N)cc3)c(F)c2)[C@@H](C(=O)NO)C1 [Entry 5]
50 to 1000	< 50	< 50	< 50	O=C(NO)[C@H]1CN(C(=O)N2CCOCC2)CCN1S(=O)(=O)c1ccc(Oc2ccc(Cl)cc2)c(F)c1 [Entry 6]
50 to 1000	< 50	< 50	< 50	N#Cc1ccc(Oc2ccc(S(=O)(=O)N3CCN(C(=O)N4CCOCC4)C[C@@H]3C(=O)NO)cc2F)cc1 [Entry 7]
50 to 1000	< 50	< 50	< 50	O=C(NO)[C@H]1CN(C(=O)N2CCOCC2)CCN1S(=O)(=O)c1ccc(Oc2ccc(F)cc2)c(F)c1 [Entry 8]
1000 to 20000	< 50	1000 to 20000	1000 to 20000	CC(C)(C)OC(=O)N1CCN(S(=O)(=O)c2cc(F)c(Oc3ccc(F)cc3)c(F)c2)[C@@H](C(=O)NO)C1 [Entry 9]
1000 to 20000	< 50	1000 to 20000	< 50	COCCOC(=O)N1CCN(S(=O)(=O)c2cc(F)c(Oc3ccc(F)cc3)c(F)c2)[C@@H](C(=O)NO)C1 [Entry 10]
> 20000	50 to 1000	1000 to 20000	> 20000	O=C(NO)[C@H]1CNCCN1S(=O)(=O)c1cc(F)c(Oc2ccc(F)cc2)c(F)c1 [Entry 11]
1000 to 20000	< 50	50 to 1000	< 50	O=C(NO)[C@H]1CN(C(=O)N2CCOCC2)CCN1S(=O)(=O)c1cc(F)c(Oc2ccc(F)cc2)c(F)c1 [Entry 12]
1000 to 20000	< 50	50 to 1000	< 50	CCOC(=O)N1CCN(S(=O)(=O)c2cc(F)c(Oc3ccc(F)cc3)c(F)c2)[C@@H](C(=O)NO)C1 [Entry 13]
> 20000	< 50	> 20000	< 50	CN1CCN(S(=O)(=O)c2cc(F)c(Oc3ccc(F)cc3)c(F)c2)[C@@H](C(=O)NO)C1 [Entry 14]
> 20000	< 50	1000 to 20000	< 50	CN1CCN(C(=O)N2CCN(S(=O)(=O)c3cc(F)c(Oc4ccc(Cl)cc4)c(F)c3)[C@@H](C(=O)NO)C2)CC1 [Entry 16]
1000 to 20000	< 50	50 to 1000	< 50	O=C(NO)[C@H]1CN(C(=O)NCCN2CCCC2)CCN1S(=O)(=O)c1cc(F)c(Oc2ccc(Cl)cc2)c(F)c1 [Entry 17]
> 20000	< 50	50 to 1000	< 50	O=C(NO)[C@H]1CN(C(=O)OCCN2CCCC2)CCN1S(=O)(=O)c1cc(F)c(Oc2ccc(Cl)cc2)c(F)c1 [Entry 18]
> 20000	< 50	50 to 1000	< 50	CNC(=O)CN1CCN(S(=O)(=O)c2cc(F)c(Oc3ccc(Cl)cc3)c(F)c2)[C@@H](C(=O)NO)C1 [Entry 19]
> 20000	< 50	1000 to 20000	< 50	CN(C)C(=O)CN1CCN(S(=O)(=O)c2cc(F)c(Oc3ccc(Cl)cc3)c(F)c2)[C@@H](C(=O)NO)C1 [Entry 20]

IC50 [1] [nM]	IC50 [2] [nM]	IC50 [3] [nM]	IC50 [4] [nM]	Structure (SMILES)
> 20000	< 50	1000 to 20000	50 to 1000	O=C(NO)[C@H]1CN(CC(=O)N2CCCC2)CCN1S(=O)(=O)c1cc(F)c(Oc2ccc(Cl)cc2)c(F)c1 [Entry 21]
1000 to 20000	< 50	50 to 1000	< 50	CN1CCC(OC(=O)N2CCN(S(=O)(=O)c3cc(F)c(Oc4ccc(Cl)cc4)c(F)c3)[C@@H](C(=O)NO)C2)CC1 [Entry 22]
> 20000	< 50	1000 to 20000	< 50	CCOC(=O)N1CCN(CC(=O)N2CCN(S(=O)(=O)c3cc(F)c(Oc4ccc(Cl)cc4)c(F)c3)[C@@H](C(=O)NO)C2)CC1 [Entry 23]
> 20000	< 50	1000 to 20000	< 50	CN1CCN(CC(=O)N2CCN(S(=O)(=O)c3cc(F)c(Oc4ccc(Cl)cc4)c(F)c3)[C@@H](C(=O)NO)C2)CC1 [Entry 24]
> 20000	< 50	50 to 1000	< 50	O=C(NO)[C@H]1CN(C(=O)CN2CCOCC2)CCN1S(=O)(=O)c1cc(F)c(Oc2ccc(Cl)cc2)c(F)c1 [Entry 25]
> 20000	< 50	1000 to 20000	< 50	O=C(NO)[C@H]1CN(C(=O)CN2CCCCC2)CCN1S(=O)(=O)c1cc(F)c(Oc2ccc(Cl)cc2)c(F)c1 [Entry 26]
1000 to 20000	< 50	50 to 1000	< 50	O=C(NO)[C@H]1CN(C(=O)OCCN2CCCCC2)CCN1S(=O)(=O)c1cc(F)c(Oc2ccc(Cl)cc2)c(F)c1 [Entry 27]
50 to 1000	< 50	50 to 1000	< 50	CS(=O)(=O)N1CCN(S(=O)(=O)c2cc(F)c(Oc3ccc(Cl)cc3)c(F)c2)[C@@H](C(=O)NO)C1 [Entry 28]
1000 to 20000	< 50	50 to 1000	< 50	COCCN1CCN(S(=O)(=O)c2cc(F)c(Oc3ccc(Cl)cc3)c(F)c2)[C@@H](C(=O)NO)C1 [Entry 29]
1000 to 20000	< 50	50 to 1000	< 50	O=C(NO)[C@H]1CN(C(=O)OCc2ccccc2)CCN1S(=O)(=O)c1cc(F)c(Oc2ccc(Cl)cc2)c(F)c1 [Entry 32]
1000 to 20000	< 50	50 to 1000	< 50	O=C(CCl)NC(=O)N1CCN(S(=O)(=O)c2cc(F)c(Oc3ccc(Cl)cc3)c(F)c2)[C@@H](C(=O)NO)C1 [Entry 33]
1000 to 20000	< 50	50 to 1000	< 50	O=C(NO)[C@H]1CN(C(=O)C(=O)N2CCCCC2)CCN1S(=O)(=O)c1cc(F)c(Oc2ccc(Cl)cc2)c(F)c1 [Entry 35]
1000 to 20000	< 50	50 to 1000	< 50	CN(C)S(=O)(=O)N1CCN(S(=O)(=O)c2cc(F)c(Oc3ccc(Cl)cc3)c(F)c2)[C@@H](C(=O)NO)C1 [Entry 36]
50 to 1000	< 50	< 50	< 50	CN1CCN(C(=O)NS(=O)(=O)N2CCN(S(=O)(=O)c3cc(F)c(Oc4ccc(Cl)cc4)c(F)c3)[C@@H](C(=O)NO)C2)CC1 [Entry 39]
1000 to 20000	< 50	50 to 1000	< 50	COCCOC(=O)N1CCN(S(=O)(=O)c2cc(F)c(Oc3ccccc3)c(F)c2)[C@@H](C(=O)NO)C1 [Entry 40]
1000 to 20000	< 50	1000 to 20000	< 50	O=C(NO)[C@H]1CN(C(=O)c2ccncc2)CCN1S(=O)(=O)c1cc(F)c(Oc2ccc(Cl)cc2)c(F)c1 [Entry 42]
> 20000	< 50	50 to 1000	< 50	CCCCCCC(=O)N1CCN(S(=O)(=O)c2cc(F)c(Oc3ccc(Cl)cc3)c(F)c2)[C@@H](C(=O)NO)C1 [Entry 43]
> 20000	< 50	1000 to 20000	50 to 1000	CCCC(CCC)C(=O)N1CCN(S(=O)(=O)c2cc(F)c(Oc3ccc(Cl)cc3)c(F)c2)[C@@H](C(=O)NO)C1 [Entry 44]
1000 to 20000	< 50	50 to 1000	< 50	O=C(CN1CCOCC1)NC(=O)N1CCN(S(=O)(=O)c2cc(F)c(Oc3ccc(Cl)cc3)c(F)c2)[C@@H](C(=O)NO)C1 [Entry 46]
